Common to all, as to type: biochemical
Experiment [1] has as its target T1, maize starch synthase SSI-1 (STSI-1), full length SSI (583 amino acids), N-terminus CVAELSREGP (SEQ ID NO:64) (Zea mays, UniProt O49064).
T1 sequence (O49064 with tags, fused parts or gaps): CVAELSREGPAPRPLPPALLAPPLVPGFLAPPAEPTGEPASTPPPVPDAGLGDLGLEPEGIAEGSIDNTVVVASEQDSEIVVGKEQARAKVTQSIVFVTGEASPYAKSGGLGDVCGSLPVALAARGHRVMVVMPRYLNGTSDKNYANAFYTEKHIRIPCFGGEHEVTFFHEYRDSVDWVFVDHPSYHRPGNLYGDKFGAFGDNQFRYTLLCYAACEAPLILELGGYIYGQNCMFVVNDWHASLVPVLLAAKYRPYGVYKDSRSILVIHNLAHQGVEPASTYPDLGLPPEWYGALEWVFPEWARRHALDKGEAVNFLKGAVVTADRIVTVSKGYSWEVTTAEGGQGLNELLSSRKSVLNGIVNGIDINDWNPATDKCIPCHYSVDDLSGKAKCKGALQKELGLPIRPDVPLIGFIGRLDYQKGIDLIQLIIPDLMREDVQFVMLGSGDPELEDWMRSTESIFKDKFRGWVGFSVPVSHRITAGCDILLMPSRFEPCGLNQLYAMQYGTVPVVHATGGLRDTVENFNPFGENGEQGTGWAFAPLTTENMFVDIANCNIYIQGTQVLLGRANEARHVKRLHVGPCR
The experiment can be described thus: ADPGlc kinetics of starch synthase SSI-1. The settings on record: 5 mg/ml amylopectin as primer, 37° C. From the text:
FIG. 58. SSI-1, SSI-2, and SSI-3 construct design. Three forms of SSI were constructed in the pET expression (see Methods). pExs10a encodes SSI-1, the full length maize SSI (583 amino acids) which has the N-terminal sequence CVAELSREGP (SEQ ID NO:64). pExs8 encodes a truncated SSI, SSI-2, with amino acids # 8-52 deleted from the N-terminus of SSI-1 and which has the N-terminal sequence CVAELSR/DLG (SEQ ID NO:65). pExs1d encodes the most truncated form of SSI, SSI-3, with the first 93 amino acids deleted from SSI-1 and which has the N-terminal sequence SIVFVTGE (SEQ ID NO:66). A depiction of the waxygene, encoding GBSS, which has the N-terminal sequence ASAGMNW (SEQ ID NO:67), is also included for comparison. The amino acid motif KS/TGGL (SEQ ID NO:9), the putative binding site for ADGPGlc, in indicated by the triangles. The KS/TGGL (SEQ ID NO:9) motif is located 18 amino acids from the N-terminus in GBSS, while the motif is 106 amino acids from the N-terminus in maize SSI. Drawing not to scale.
5 mL of supernatant were used to assay STS and SBE activities as previously described (Preiss) with minor modification. […] The unincorporated [^14C]-ADPGlc was separated with Dowex anion exchange column (200-400 mesh, Sigma Chemical Co.). […] SBE activity was determined by phosphorylase stimulation assay. One unit of activity is defined as 1 mmol Glc incorporated into the a-glucan per min at. […]

The target of experiment [2] is maize starch synthase SSIIa-1, putative full length SSIIa (669 amino acids), N-terminus AEAEAGGK (SEQ ID NO:68) (Zea mays, UniProt A0A804PX87). The experiment can be described thus: ADPGlc kinetics of starch synthase SSIIa-1. The settings on record: for Vmax (ADPGlc kinetics): amylopectin as primer, 27° C. From the text: (§1) FIG. 59. SSIIa-1 and SSIIa-2 construct diagram. Two forms of SSIIa were constructed in the pET expression system. pExs3c encodes SSIIa-1, the putative full length maize SSIIa which has the N-terminal sequence AEAEAGGK (SEQ ID NO:68). […] A depiction of the waxy gene, encoding GBSS which has the N-terminal sequence ASAGMNVV (SEQ ID NO:67), is also included for comparison. The amino acid motif KTGGL (SEQ ID NO:10), the putative binding site for ADPGlc, is indicated by the triangles. The KTGGL (SEQ ID NO:10) motif is located 18 amino acids from the N-terminus in GBSS, while the motif is 194 amino acids from the N-terminus in maize SSIIa.
Chain of maize starch synthase SSIIa-1, putative full length SSIIa (669 amino acids), N-terminus AEAEAGGK (SEQ ID NO:68) (A0A804PX87 entry or part of it): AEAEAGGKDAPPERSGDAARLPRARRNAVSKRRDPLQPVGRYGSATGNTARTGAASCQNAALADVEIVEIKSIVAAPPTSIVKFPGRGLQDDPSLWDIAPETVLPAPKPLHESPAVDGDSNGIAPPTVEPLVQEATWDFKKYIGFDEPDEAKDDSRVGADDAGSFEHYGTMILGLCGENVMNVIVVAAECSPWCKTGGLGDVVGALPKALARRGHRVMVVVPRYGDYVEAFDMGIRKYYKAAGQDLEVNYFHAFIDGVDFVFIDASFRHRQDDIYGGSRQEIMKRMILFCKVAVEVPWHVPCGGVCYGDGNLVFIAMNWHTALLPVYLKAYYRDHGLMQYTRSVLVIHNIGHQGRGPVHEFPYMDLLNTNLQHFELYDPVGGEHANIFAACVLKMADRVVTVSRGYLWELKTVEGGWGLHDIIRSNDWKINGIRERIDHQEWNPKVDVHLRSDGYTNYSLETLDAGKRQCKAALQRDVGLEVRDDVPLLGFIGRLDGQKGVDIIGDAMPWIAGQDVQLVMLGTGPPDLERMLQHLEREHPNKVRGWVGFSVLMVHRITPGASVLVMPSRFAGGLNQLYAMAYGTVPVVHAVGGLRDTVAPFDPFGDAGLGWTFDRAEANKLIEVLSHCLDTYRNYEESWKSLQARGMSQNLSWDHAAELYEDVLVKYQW
(§2) 5 mL of supernatant were used to assay STS and SBE activities as previously described (Preiss) with minor modification. […] […] The unincorporated [^14C]-ADPGlc was separated with Dowex anion exchange column (200-400 mesh, Sigma Chemical Co.). One unit of activity is defined as 1 nmol Glc incorporated into the a-glucan per min at 25° C. SBE activity was determined by phosphorylase stimulation assay. One unit of activity is defined as 1 mmol Glc incorporated into the a-glucan per min at. 30° C.
For the recombinant SS purification, the cell pellet was resuspended in sonication buffer (50 mM Tris-acetate, pH 7.5, 10 mM EDTA, and 5 mMDTT; 7 ml buffer per gram of cell mass), and cells were lysed using a Fisher 550 Sonic Dismembrator with 5×1 min. bursts with 30 sec. intervals. The homogenate was centrifuged at 9600 g for 30 minutes. SSI in the supernatant was then precipitated by slowly adding neutralized saturated ammonium sulfate to 40% saturation. After stirring on ice for an additional 50 minutes, proteins were collected by centrifugation at 12500 g for 45 minutes. The protein pellet was then redissolved in buffer A (50 mM Tris, pH 5.5, 1 mM EDTA, and 5 mM DTT) containing 0.1 M KCl and dialyzed against the same buffer, with one change of buffer. After dialysis, the sample was centrifuged at 13000 g for 20 minutes to remove insoluble materials. […]

In experiment [3] the target is maize starch synthase SSIIa-2, N-terminally truncated SSIIa, first 176 amino acids deleted (493 amino acids), N-terminus GENVMNVI (SEQ ID NO:1) (Zea mays, UniProt A0A804PX87). The experiment can be described thus: ADPGlc kinetics of starch synthase SSIIa-2. The settings on record: for Vmax (ADPGlc kinetics): amylopectin as primer.
Chain of maize starch synthase SSIIa-2, N-terminally truncated SSIIa, first 176 amino acids deleted (493 amino acids), N-terminus GENVMNVI (SEQ ID NO:1) (A0A804PX87 entry or part of it, stated change not applied): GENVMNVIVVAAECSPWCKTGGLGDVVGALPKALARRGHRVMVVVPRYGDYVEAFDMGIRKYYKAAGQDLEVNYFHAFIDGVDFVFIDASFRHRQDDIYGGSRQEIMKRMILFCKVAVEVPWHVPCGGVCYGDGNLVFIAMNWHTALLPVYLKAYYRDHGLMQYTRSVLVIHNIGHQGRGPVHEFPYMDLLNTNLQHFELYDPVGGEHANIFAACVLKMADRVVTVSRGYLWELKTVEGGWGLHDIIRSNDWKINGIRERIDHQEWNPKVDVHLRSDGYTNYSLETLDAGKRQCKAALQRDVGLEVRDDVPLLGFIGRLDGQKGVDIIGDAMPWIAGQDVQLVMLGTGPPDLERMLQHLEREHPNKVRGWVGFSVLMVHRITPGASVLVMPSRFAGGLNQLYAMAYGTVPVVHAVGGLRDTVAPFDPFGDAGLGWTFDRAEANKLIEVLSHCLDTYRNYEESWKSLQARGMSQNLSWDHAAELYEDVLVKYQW
Text: as §1, §2
For the recombinant SS purification, the cell pellet was resuspended in sonication buffer (50 mM Tris-acetate, pH 7.5, 10 mM EDTA, and 5 mMDTT; 7 ml buffer per gram of cell mass), and cells were lysed using a Fisher 550 Sonic Dismembrator with 5×1 min. bursts with 30 sec. intervals. The homogenate was centrifuged at 9600 g for 30 minutes. SSI in the supernatant was then precipitated by slowly adding neutralized saturated ammonium sulfate to 40% saturation. After stirring on ice for an additional 50 minutes, proteins were collected by centrifugation at 12500 g for 45 minutes. The protein pellet was then redissolved in buffer A (50 mM Tris, pH 5.5, 1 mM EDTA, and 5 mM DTT) containing 0.1 M KCl and dialyzed against the same buffer, with one change of buffer. After dialysis, the sample was centrifuged at 13000 g for 20 minutes to remove insoluble materials. The resulting supernatant was loaded onto […] pre-equilibrated with dialysis buffer, and the flow through was collected. The column was washed with 10 column volumes of buffer a containing 0.1 M KCl, and then with buffer A containing 0.5 M KCl and 0.5 M maltose, collecting fractions during both washes. The active fractions were pooled and dialyzed overnight against buffer A, with one change of buffer. The next day, the amylase column sample was filtered and applied to a mono Q 5/5 FPLC column (Pharmacia). After washing with buffer A, a 20 ml 0-0,4 M KCl gradient was employed. The active fractions were electrophoresed on an 8% SDS-PAGE gel (31) to determine the purity of SSI in those fractions; the fractions which were apparently homogeneous were pooled and concentrated using a Centricon-30 spin column (Amicon).

Take `Nc1ncnc2c1ncn2[C@@H]1O[C@H](COP(=O)(O)OP(=O)(O)O[C@H]2O[C@H](CO)[C@@H](O)[C@H](O)[C@H]2O)[C@@H](O)[C@H]1O` [ADPGlc, adenosine diphosphate glucose]: the “Vm (ADPGlc kinetics)” value in experiment [1] (+citrate) came to 18.0 ± 0.5 μmol/min/mg protein; in experiment [1] (−citrate), 6.38 ± 0.88 μmol/min/mg protein. The “Vmax (ADPGlc kinetics)” value in experiment [2] (+citrate) stood at 23.0 ± 2.5 μmol/min/mg protein; in experiment [2] (−citrate) it was 12.1 ± 0.8 μmol/min/mg protein; in experiment [3] (+citrate, 27° C.) it was 4.83 ± 0.42 μmol/min/mg protein; in experiment [3] (+citrate, 37° C.) it was 11.4 ± 0.6 μmol/min/mg protein; in experiment [3] (−citrate, 27° C.), 4.87 ± 0.25 μmol/min/mg protein; in experiment [3] (−citrate, 37° C.), 7.86 ± 0.53 μmol/min/mg protein. For the same compound, in experiment [2] (from 27° C. to 37° C.), the “increase of Km of ADPGlc upon raising the assay temperature” value was found to be 2 fold. For the same compound, the “Km for ADPGlc compared with SSIIa-1” value in experiment [3] (all assay conditions used except glycogen primer at 27° C.) is reported as “lower Km for ADPGlc”. The “effect of raising temperature on Km for ADPGlc” value in experiment [3] (from 27° C. to 37° C.) is on record as “not affected by raising temperature”.

The values above are taken from US7285703B2, “Plant like starches and the method of making them in hosts” (BASF Plant Science GmbH, priority 1998, dated 2007).
